According to ChEMBL document CHEMBL1147885, “A novel noninvasive method for assessing glutathione-conjugate efflux systems in the brain” (Bioorg Med Chem, 2007):

Legend:
Format in all cases: ADME, organism-based
[1] = tested on: Brain; assay: Metabolic stability in intravenously dosed Wistar rat brain assessed as radioactivity remained in unchanged form after 15 mins by TLC; settings: in vivo, iv, 0.25 h
[2] = tested on: Brain; assay: Metabolic stability in intravenously dosed Wistar rat brain assessed as metabolite level after 15 mins by HPLC; settings: in vivo, iv, 0.25 h
[3] = tested on: Brain; assay: Metabolic stability in intravenously dosed Wistar rat brain assessed as metabolite level after 60 mins by HPLC; settings: in vivo, iv, 1 h

Measured: Stability

[14CH3]n1cnc2ncnc(Cl)c21
80%: [1] | [2] | [3]
